pIC50: −log10 of the molar value.
Columns and labels:
[1] = Tested for the ability to inhibit the pentylenetetrazole induced seizures against NMDA antagonist by intraperitoneal administration; assay type: functional; conditions: ip
[2] = Tested for the ability to inhibit the maximal electroshock induced seizures against NMDA antagonist by intraperitoneal administration; assay type: functional; conditions: ip
[3] = Tested for the ability to inhibit the NMDA induced seizures against NMDA antagonist by intraperitoneal administration; assay type: functional; conditions: ip
[4] = biological target: Glutamate [NMDA] receptor; test: Tested for the inhibitory activity by the inhibition of excitatory [3H]CGS-19,755 binding to NMDA recognition sites; assay type: protein-complex assay
[5] = biological target: Glutamate [NMDA] receptor; test: Tested for the inhibitory activity by the inhibition of excitatory L-[3H]Glutamate binding to NMDA recognition sites; assay type: protein-complex assay

| pIC50 [4] | pIC50 [5] | SMILES | ED50 [1] | ED50 [2] | ED50 [3] |
| --- | --- | --- | --- | --- | --- |
|  |  | O=C(O)[C@@H]1C[C@H](CP(=O)(O)O)CCN1 (single isomer, unassigned) [SELFOTEL] | 29 mg/kg | 12.9 mg/kg | 2.64 mg/kg |
| 6.26 | 5.50 | N[C@H](C[C@@H]1CCCC[C@@H]1CCP(=O)(O)O)C(=O)O |  |  |  |
| 7.07 | 6.49 | O=C(O)[C@H]1CN(CCCP(=O)(O)O)CCN1 |  |  |  |
| 6.62 | 5.19 | N[C@@H](C[C@@H]1CCCC[C@@H]1CCP(=O)(O)O)C(=O)O |  |  |  |
| 6.83 | 6.22 | N[C@H](C[C@H]1CCCC[C@H]1CCP(=O)(O)O)C(=O)O | 4.51 mg/kg | 13.4 mg/kg | 2.68 mg/kg |
| 6.58 | 5.59 | N[C@@H](C[C@H]1CCCC[C@H]1CCP(=O)(O)O)C(=O)O |  |  |  |
| 6.01 | 5.80 | NC(CC1CCCCC1CCP(=O)(O)O)C(=O)O (stereo unspecified) | 6.02 mg/kg | > 15 mg/kg | 12.4 mg/kg |

| SMILES | pIC50 [4] | pIC50 [5] | ED50 [1] | ED50 [2] | ED50 [3] |
| --- | --- | --- | --- | --- | --- |
| CC(=CC(N)C(=O)O)CP(=O)(O)O (stereo unspecified) [CGP-37849] | 7.74 | 7.59 | > 10 mg/kg | 3.64 mg/kg | 3.41 mg/kg |

From ChEMBL document CHEMBL1152025, “Enzymatic asymmetric synthesis of (2R, 4R, 5S)-2-amino-4,5-(1,2-cyclohexyl)-7-phosphonoheptanoic acid, a potent, selective and competitive NMDA antagonist” (Bioorg Med Chem Lett, 1993)
